Values joined by “and” are separate entries in the source; they are usually repeats but may differ in a detail not shown here. Equal entries are not always repeated. Where two headings read alike, the source gives them in different places. Where a SMILES comes first, the peptide text is derived from it. Where no end group is shown, it is not given here. [ ]: non-standard residue; d: D form. The star is where a group is joined. ξ: configuration not given here. Biotinyl(4ξ) = O=C1N[C@H]2CSC(CCCCC(=O)*)[C@H]2N1; Nspe = C[C@H](NCC(=O)O)c1ccccc1; NhArg = N=C(N)NCCCCNCC(=O)O; Nmpe = not defined here; Nae = not defined here; Nlys = NCCCCNCC(=O)O
Experiments:
PrPc = PrPc (Homo sapiens, UniProt P04156); format: binding
PrP^Sc = PrP^Sc (Homo sapiens, UniProt P04156); format: binding; details: for Exp. Mean (1 ul 10% CJD BH): streptavidin beads
[1] = Table 5, 70% human plasma, streptavidin beads, ELISA signal
[2] = Table 5, 1 ul 10% CJD BH, 70% human plasma
[3] = Table 5, 70% human plasma, ELISA signal
[4] = Table 6, CJD brain homogenate in 20% human plasma
[5] = Table 6, CJD brain homogenate in 20% human plasma, ELISA signal

Compound: CC(=O)N(CCCCN)CC(=O)N(CCCCN)CC(=O)N(CCCCNC(=N)N)CC(=O)N(CC(=O)N(CCCCN)CC(=O)N(CC(=O)N[C@@H](CCCCNC(=O)CCCCC1SC[C@@H]2NC(=O)N[C@H]12)C(N)=O)[C@@H](C)c1ccccc1)[C@@H](C)c1ccccc1 (some centres unmarked) [Peptoid Reagent II] (Ac-[Nlys][Nlys][NhArg][Nspe][Nlys][Nspe]K(Biotinyl(4ξ))-NH2)
- Control Mean (1 ul 10% Normal BH) (PrPc; [1]): 7.02
- Exp. Mean (as % of 68) (PrP^Sc; [2]): 110.8%
- Exp. Mean (1 ul 10% CJD BH) (PrP^Sc; [3]): 463.5
- Mean (% of 68) (PrP^Sc; [4]): 124.85%
- Mean (PrP^Sc; [5]): 106.10

Compound: CC(=O)N(CCCCN)CC(=O)N(CCCCN)CC(=O)N(CCCCN)CC(=O)N(CC(=O)N(CCCCN)CC(=O)N(CC(=O)N[C@@H](CCCCNC(=O)CCCCC1SC[C@@H]2NC(=O)N[C@H]12)C(N)=O)[C@@H](C)c1ccccc1)[C@@H](C)c1ccccc1 (some centres unmarked) [Peptoid Reagent IX] (Ac-[Nlys][Nlys][Nlys][Nspe][Nlys][Nspe]K(Biotinyl(4ξ))-NH2)
- Control Mean (1 ul 10% Normal BH) (PrPc; Table 4, 70% human plasma, streptavidin beads, ELISA signal): 20.1
- Control Mean (1 ul 10% Normal BH) (PrPc; [1]): 9.47
- Exp. Mean (as % of 68) (PrP^Sc; Table 4, 1 ul 10% CJD BH, 70% human plasma): 121.9%
- Exp. Mean (1 ul 10% CJD BH) (PrP^Sc; Table 4, 70% human plasma, ELISA signal): 1039.4
- Exp. Mean (as % of 68) (PrP^Sc; [2]): 126.5%
- Exp. Mean (1 ul 10% CJD BH) (PrP^Sc; [3]): 528.8

Compound: CC(=O)N(CCCCN)CC(=O)N(CCCCN)CC(=O)N(CCCCN)CC(=O)N(CCCCN)CC(=O)N(CCCCN)CC(=O)N[C@@H](CCCCNC(=O)CCCCC1SC[C@@H]2NC(=O)N[C@H]12)C(N)=O (some centres unmarked) [Peptoid Reagent I]
- Normal Mean (PrPc; Table 8, 2 microliters of 10% normal brain homogenate in 70% human plasma): 3.31
- Mean (% of 68) (PrP^Sc; [4]): 104.31%
- Mean (PrP^Sc; [5]): 88.64
- CJD Mean (PrP^Sc; Table 8, 2 microliters of 10% CJD brain homogenate in 70% human plasma): 124.47

Compound: CC(=O)N(CCCCN)CC(=O)N(CC(=O)N(CCCCN)CC(=O)N(CCCCN)CC(=O)N(CC(=O)N(CCCCN)CC(=O)N[C@@H](CCCCNC(=O)CCCCC1SC[C@@H]2NC(=O)N[C@H]12)C(N)=O)[C@@H](C)c1ccccc1)[C@@H](C)c1ccccc1 (some centres unmarked) [Peptoid Reagent X] (Ac-[Nlys][Nspe][Nlys][Nlys][Nspe][Nlys]K(Biotinyl(4ξ))-NH2)
- Control Mean (1 ul 10% Normal BH) (PrPc; [1]): 7.28
- Exp. Mean (as % of 68) (PrP^Sc; [2]): 114.5%
- Exp. Mean (1 ul 10% CJD BH) (PrP^Sc; [3]): 478.7

Compound: (GGG)KKRPKPGG [compound 68, reference compound]
- Control Mean (1 ul 10% Normal BH) (PrPc): 19.2
- Exp. Mean (as % of 68) (PrP^Sc): 100.0% and 100.1%
- Mean (PrP^Sc): 84.98 and 137.9
- Mean (% of 68) (PrP^Sc): 100.0%

Compound: (GGG)QWNKPSKPKTN [compound 14, reference compound]
- Mean (PrP^Sc): 4.74
- Mean (% of 68) (PrP^Sc): 5.58%

Compound: Peptoid Reagent III: peptoid reagent comprising SEQ ID NO: 231, Nae-Nmpe-Nmpe-Nae-Nmpe-Nmpe-Nae-Nmpe-Nmpe ([Nae][Nmpe][Nmpe][Nae][Nmpe][Nmpe][Nae][Nmpe][Nmpe]; reading uncertain; also: printed as Nae-Nmpe-Nmpe-Nae-Nmpe-Nmpe-Nae-Nmpe-Nmpe)
- Mean (% of 68) (PrP^Sc; [4]): 2.15%
- Mean (PrP^Sc; [5]): 1.83

From patent US7834144B2 (priority 2005, dated 2010)
